The test system of assay [1] is Staphylococcus aureus (ATCC 43300, MRSA). Briefly: In vivo efficacy in MRSA-infected moth larvae. Further details: species or system Galleria mellonella. The following applies: 24 h after drug administration; vs 10 % DMSO control; rifampicin 0.4 mg/mL, 10 µL. On the procedure:
Ethics Committee was obtained for use of human blood for haemolysis studies (approval number […]
G. mellonella larvae were reared in controlled environmental room at Macquarie University, Sydney, Australia at 26 °C and 65% humidity with a 12-hours light/dark cycle. Larvae (~200 mg) were individually injected with 10 µL of chemical into the last right proleg using a 100 μL syringe (Hamilton Ltd). The […]
Each compound was dissolved in DMSO and diluted to final concentrations of 1 µM, 100 µM and 10 mM. We injected 5 larvae for each dilution of each compound.
Larvae injected with different dilutions of DMSO (10-1, 10-3 and 10-5) were included as negative controls.
Following injection, the larvae were incubated at 26 °C and monitored every 24 h for 4 days. Larval performance was assessed according to the G. mellonella Health Index Scoring System.[1] The experiments were repeated three separate times.
Galleria larvae (weighing between 200-250 mg) were infected with […] cells of Staphylococcus aureus (ATCC 43300, MRSA) (suspended in 10 µL PBS) and incubated at 37 °C. Two hours later, 10 µL compounds of either Pt1 or Pt2 (0.4 mM) in 10% DMSO was injected to the other proleg of the larvae.
Larvae injected with 10% DMSO and Rifampicin (0.4 mg/mL) were included as controls. […] Bacterial number was determined by drop plate method. […] Bacterial number was counted after incubation for 24 h.

A short description of assay [2]: Antimicrobial activity of cisplatin in all assays of the paper. The format is cell-based. As to the method:
Following a protocol previously reported by us we used larvae of the greater wax moth Galleria mellonella as a model organism for in vivo toxicity and efficacy.[20] […] Briefly, stock solutions of Pt1 and Pt2 were prepared in DMSO and diluted to final concentrations of 0.4 mM, 100 μM, 10 μM and 1 μM. Due to solubility limitations higher concentrations could not be evaluated. For each concentration five larvae were injected with 10 μL and monitored for 96 hours for survival and health using the G. mellonella Health Index Scoring System.[22]

Two molecules from PMC8596843, “Platinum Cyclooctadiene Complexes with Activity against Gram‐positive Bacteria” (Chemmedchem, 2021) can be followed below.

On to `CO[C@H]1/C=C/O[C@@]2(C)Oc3c(C)c(O)c4c(O)c(c(/C=N/N5CCN(C)CC5)c(O)c4c3C2=O)NC(=O)/C(C)=C\C=C\[C@H](C)[C@H](O)[C@@H](C)[C@@H](O)[C@@H](C)[C@H](OC(C)=O)[C@@H]1C` [Rifampicin], for which the “reduction in CFU (bacterial load per larva)” value in assay [1] worked out at 2 log.
With `N.N.[Cl][Pt][Cl]` [cisplatin], the antimicrobial activity entry in assay [2] is given as “no antimicrobial activity”.
